“Also recorded” adds a separate entry of the source.
Tests used:
Assay type in all cases: cell-based, human
[1] = tested on: RhoA in HuH-7 cells (DORA-RhoA); experiment: RhoA activity by FRET
From the text: The mGFP-paxillin expression vector was a gift from A. Kusumi (Okinawa Institute of Science and Technology, Japan). pGFP-FAK and pEGFP-vinculin were gifts from Kenneth Yamada (RRID: Addgene_50513 and Addgene¬_50515)[39], EGFP-talin, mVenus-Integrin-Beta1 and mRuby-Lifeact-7 was a gift from Michael Davidson (RRID: Addgene_54560). pEGFPC1/Gg Vinculin 1-258 (akaVD1) was a gift from S. Craig (RRID: Addgene_46270)[40]. The Rac1 FRET Sensor, pCAGGS-RaichuEV-Rac1was generously provided by K. Aoki (National Institute for Basic Biology, Japan)[41] and the RhoA FRET sensor, DORA-RhoA was generously provided by Yi I. Wu (University of Connecticut Health Center, USA)[42]. The expression vectors for Rac1/Tiam1 activation system (Lyn11-linker-FRB, YFP-FKBP, YFP-FKBP-linker-Tiam1, and pTriEx-PA-Rac1) was generously provided by T. Inoue (Johns Hopkins University, USA)[43].

[2] = tested on: Phospho-Myosin Light Chain 2 (Thr18/Ser19) (pMLC) in HuH-7 cells; experiment: Western blotting pMLC; conditions: relative to Ctrl = 1, 12 hr, representative blot
Method: Protein lysates were prepared in ice-cold RIPA lysis, and extraction buffer (Thermo Scientific) supplemented with 1% Halt Protease Inhibitor (Thermo Scientific) and 1% Halt Phosphatase inhibitor (Thermo Scientific). Cells were scraped off from the culture surface using a cold plastic cell scraper, and the cell suspension was then gently transferred into a pre-cooled microcentrifuge tube and maintained on ice for 30 min with constant agitation before centrifuged at 21000 × g for 20 min. The supernatant was then transferred to a new tube, and the protein concentration of the supernatant was quantified according to the Pierce™ BCA Protein Assay Kit (Thermo Scientific). The rest of the supernatant was mixed with 4x laemmli sample buffer (Bio-Rad) in a 1:3 ratio and boiled at 100 °C for 10 min. Lysates can be aliquoted and stored at −80 °C freezer. When running the gel, 30 μg of protein was loaded into each well of the SDS-PAGE gels, along with a molecular weight marker (Bio-Rad). The gel was run for 2 hr at constantly 100 V to separate the proteins based on the molecular weight. The proteins were then transferred from the SDS-gel to a PVDF membrane (Bio-Rad) using a Transfer-blot turbo system (Bio-Rad). […] Protein bands were quantified by measuring peak areas using ImageJ. […]

[3] = tested on: HuH-7 cells; experiment: Morphodynamics analysis (edge velocity); conditions: for Retraction velocity / Protrusion velocity: median
Method: The whole-cell morphodynamics maps were generated using the open-source ImageJ plugin “ADAPT”[46]. The analyses were done on the maximum intensity projection of 5.5-µm stack images of mRuby-Lifeact-7 transfected HuH-7 cells pretreated with peptides for 12 hr. A spinning-disk confocal (Olympus SD-OSR) equipped with the camera Prime BSI sCMOS camera and a 100×/1.35 Silicon UPlanSApo objective was used to obtain the images every 2 min. All velocity values are directly measured using the plugin and plotted using GraphPad Prism. Briefly, the fluorescent images were Gaussian filtered to suppress noise and then a gray-level threshold was applied to create a binary image. The cell boundary was taken as pixels bordering segmented regions and the resulting segmentation is used as the seed for the region-growing algorithm in the next frame. […] The change in gray level was used to calculate the membrane velocity at each point and for a better visual representation, the resulting velocity map images (around 10000 × 100 pixels) were stretched to optimize visualization. […]

[4] = tested on: integrin α3β1 expressing cells (HuH-7, HeLa, HepG2, A549, MKN1, and U-87 MG); experiment: Wound healing assay, integrin α3β1 expressing cells; conditions: 10-200 µM
Method: Healthy cells were seeded in 96-well Image Lock plates (Essen Bioscience, UK). Each well contained 2 ×10^4 to 5 × 10^4 cells in 100 μL of complete cell culture medium. Cell monolayer with approximately 90% confluence formed after 12 hr and cells were next starved in serum-free culture medium for 12 hrs. Homogenous scratch wounds with a width of about 700 μm were made by an Essen BioScienceWound Maker. The detached cells were washed with Dulbecco’s Buffered Saline (DPBS, Gibco) 3 times. Cells were incubated with 100 μL of culture medium containing 0.5 % FBS and desired concentration of each peptide. Wound closure was monitored by an IncucyteS3 (Essen Bioscience) with a 10x objective. Images for each well were acquired every 2 hr to 8 hr for 2 days or until the wounds were closed completely. The wound healing rate was quantified by Incucyte Scratch Wound Analysis Module (Essen Bioscience). The experiments were repeated at least 3 times, and the results were presented as mean ± standard deviation of at least 3 independent experiments.

[5] = entire periphery, HuH-7, pretreated 12 hr, violin plot
[6] = vin258-transfected HuH-7, 12 hr, n = 10 cells

## FFFIKLLI [assembling ligand: FFF coupled to the N-terminus of IKLLI; self-assembles into nanofilaments]
[1]; 12 hr, n = 50 cells, mean
  RhoA activity, FRET/CFP: 1.263
[1]; HuH-7
  RhoA activity: great inhibition; also recorded: suppressed RhoA activity; also recorded: global inhibition
[2]
  pMLC band: 0.17
[3]; HuH-7, FFFIKLLI 100 μM, 12 h
  trailing edge retraction and leading-edge protrusion: restricted both trailing edge retraction and leading-edge protrusion
[3]; Tiam1/Rac1-activated HuH-7, 12 hr, n = 7, 8 cells
  Retraction velocity: 0.035 µm/min
[3]; [5]
  Protrusion velocity: 0.0072 µm/min
  Retraction velocity: 0.0076 µm/min
[3]; [6]
  Protrusion velocity: 0.0086 µm/min
  Retraction velocity: 0.0080 µm/min
[4]
  effect on cell migration: suppression effect

Reference: PMC9411606, “Control cell migration by engineering integrin ligand assembly” (Nature Communications, 2022)
